Experiments:
[1] = Salicylate element with and without silver nitrate (Example 3)
Description: Standard elements (without blocking reagent) were spotted with solutions containing human serum spiked with salicylate in concentrations between 0 and 60 mg/dL. After a 5 minute incubation at 37°C the reflectance density was measured at 540 nm. Predicted salicylate concentration can be determined by fitting a response curve through the reflectance densities produced.

[2] = Dry salicylate element with blocking agent in the spreading layer (Example 1); settings: for Salicylate Prediction of Fluid Fluid B: serum with 40 mg/dL salicylate and 100 mg/dL NAC; for Salicylate Prediction of Fluid Fluid B / Salicylate Prediction of Fluid Fluid C / Salicylate Prediction of Fluid Fluid A: agent in spreading layer at given g/m²; for Salicylate Prediction of Fluid Fluid C / Salicylate Prediction of Fluid Fluid A: serum with 40 mg/dL salicylate; for Salicylate Prediction of Fluid Fluid C: one hour exposure to stopper containing 2-benzothiazolethiol; for Salicylate Prediction of Fluid Fluid A: 540 nm, 5 minute, 37°C; for reducing sulfhydryl interference: salicylate element
Description: In this example, a dry analytical element formulated for measuring salicylate was used. […] A series of serum samples containing known levels of salicylate were spotted on the various test elements. Absorbance was measured at 540 nm after a 5 minute incubation at 37°C. From this series, a relationship between element absorbance and salicylate level could be made.
Serum samples containing 40 mg/dL of salicylate (Fluid A) and either 100 mg/dL of NAC (Fluid B) or a one hour exposure to a stopper containing 2-benzothiazolethiol (Fluid C) were then spotted on the elements and their predicted salicylate levels determined.

[3] = Screening of sulfhydryl-blocking reagents for NAC interference in the standard SOX solution assay; format: biochemical; settings: more NAC than N-ethyl maleimide
Description: (§1) A standard SOX reaction solution can be prepared containing in 1 mL; 100 mM TRIS-C1, pH 7.75, 200 mM sarcosine, 1.5 mM 4-AAP, 0.02% (by weight) phenol, and 5.9 Units peroxidase. All reagents are combined in the assay cuvette and incubated at 37°C for 10 minutes after which time 1 Unit/mL SOX is added to the solution to initiate reaction. Reactions are observed spectrophotometrically at 505 nm; millimolar extinction coefficient is 17.4.
A variety of materials were selected as examples of reagents that might complex with (bind) the sulfhydryl group of NAC and thus block interference. […] One group contains materials not effective under the conditions tested; a second group appeared to minimize NAC interference, but adversely affected the assay. For example, the solution became gel-like or color formation was impaired. It is possible that this group of materials would be effective if they were incorporated apart from the detection chemistry, for example, either attached to beads or polymers or in a separate layer in a multilayer slide format.
The third group contains materials that effectively eliminated NAC interference and had no effect on dye formation or enzyme rate. In each case, the blocking reagent alone (set d) had no effect on the detection system. When this group of blocking reagents and NAC were included in the reaction cuvette, SOX reaction rates improved markedly. […]

horse radish peroxidase = target: T1, horse radish peroxidase (Armoracia rusticana, UniProt P00433); test: Effect of NAC on peroxidase activity (o-dianisidine dye formation); format: biochemical; settings: 1 mM NAC in reaction mixture; 37°C; 430 nm
T1 sequence (P00433 31-338): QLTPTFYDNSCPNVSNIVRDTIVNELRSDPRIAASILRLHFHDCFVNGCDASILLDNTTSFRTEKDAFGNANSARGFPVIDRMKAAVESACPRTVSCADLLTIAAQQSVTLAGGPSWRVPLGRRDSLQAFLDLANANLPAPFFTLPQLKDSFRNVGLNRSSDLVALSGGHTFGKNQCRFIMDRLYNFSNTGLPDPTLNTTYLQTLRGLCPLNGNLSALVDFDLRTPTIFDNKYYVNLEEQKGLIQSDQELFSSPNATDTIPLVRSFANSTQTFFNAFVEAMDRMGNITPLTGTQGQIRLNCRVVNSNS
Description: One mL reaction solution was prepared containing 100 mM TRIS-C1, pH 7.75, 0.88 mM H₂O₂, and 0.157 mM o-dianisidine. All reagents were combined in the assay cuvette and incubated at 37°C for 10 minutes after which time 0.59 Unit of horse radish peroxidase was added to the solution to initiate reaction. Reactions were monitored spectrophotometrically at 430 nm; millimolar extinction coefficient was 11.3.

[4] = Effect of NAC on preformed indicator dye in the SOX reaction (bleaching); settings: for Final absorbances: 505 nm
Description: as §1
When determining the effect of NAC on SOX activity, the standard test described above is carried out except that to allow the reaction to go to completion before NAC is added, only 0.1 mM sarcosine is added. Thus, we ensured that all color formation was complete (the sarcosine being depleted). Indicator dye formed in four cuvettes when SOX was added; absorbance endpoint was 1,800. NAC then was added to the cuvettes to the final concentration of 0, 1, 2.5 or 10 mM, and the changes in absorption monitored. Rapidly (less than 10 seconds) each cuvette containing MAC lost color, proportional to MAC concentration. Final absorbances were 1.880, 1.100, 0.600 and 0.150 for cuvette containing 0, 1, 2.5 or 10 mM NAC, respectively.

[5] = Placement of the blocking reagent in the dry salicylate element (Example 2); settings: Serum w/ Salicylate w/ 100mg/dL N-acetyl cysteine; no blocking reagent
Excerpt: Placement of the blocking reagent in the proper layer of the dry element is essential for stability. In this example, we placed the blocking reagent (0.5 g/m² of maleimide) in the spreading layer of one element, a location that is relatively hydrophobic in nature, and in the reagent layer of another element. […]

[6] = Acetaminophen element with and without maleimide (Example 4); settings: n-acetylcysteine at 100 mg/dL
Description: This example is similar to Example 3 except that the analyte is acetaminophen and the element used for testing is the one shown in Table VII below.
Human serum spiked with acetaminophen varying in concentration between 1 and 294 mg/dL were spotted on the standard element and the element of the invention. After incubating for 5 minutes at 37°C, reflectance density was measured at 670 nm. Predictions of acetaminophen concentration were obtained as was done for salicylate concentration in Example 3. Differences between the predicted values and the values actually obtained from the two elements (standard and the invention) are shown in Table VIII.

Molecule: Sc1nc2ccccc2s1 [2-benzothiazolethiol]
- bias, Standard element ([1]; Salicylate at 15 mg/dL, 1 hour contact w/ rubber stoppers containing 2-benzothiazolethiol): -12.9 mg/dL bias
- bias, Standard element ([1]; Salicylate at 40 mg/dl, 1 hour contact w/ rubber stoppers containing 2-benzothiazolethiol): -31.5 mg/dL bias

Molecule: NC(=O)CI [Iodoacetamide]
- Salicylate Prediction of Fluid Fluid B [2]: 12 mg/dL
- Salicylate Prediction of Fluid Fluid C [2]: 42 mg/dL
- Salicylate Prediction of Fluid Fluid A [2]: 40 mg/dL

Molecule: CCN1C(=O)C=CC1=O [N-ethyl-maleimide]
- enzyme rate [3]: no improvement in enzyme rate is observed

Molecule: CC(=O)N[C@@H](CS)C(=O)O [NAC, N-acetyl cysteine]
- peroxidase activity, as monitored by dye formation (horse radish peroxidase): significantly inhibited
- Final absorbances ([4]; 1 mM NAC added after colour formation complete): 1.100
- Final absorbances ([4]; 2.5 mM NAC added after colour formation complete): 0.600
- Final absorbances ([4]; 10 mM NAC added after colour formation complete): 0.150
- time in which cuvette lost color ([4]; cuvettes with 1, 2.5 or 10 mM NAC): less than 10 seconds
- salicylate prediction, Standard Element [5]: 0.0 mg/dL
- bias, Standard element ([1]; Salicylate at 15 mg/dL, n-acetylcysteine at 102 mg/dL): -11.32 mg/dL bias
- bias, Standard element ([1]; Salicylate at 40 mg/dl, n-acetylcysteine at 102 mg/dL): -40 mg/dL bias
- bias, Standard element ([6]; Acetaminophen at 1 mg/dL): -1.0 mg/dL bias
- bias, Standard element ([6]; Acetaminophen at 52 mg/dl): -52 mg/dL bias
- bias, Standard element ([6]; Acetaminophen at 202 mg/dL): -200 mg/dL bias

Molecule: Fe(NO)₃
- Salicylate Prediction of Fluid Fluid B [2]: 0.0 mg/dL
- Salicylate Prediction of Fluid Fluid C [2]: 17 mg/dL
- Salicylate Prediction of Fluid Fluid A [2]: 40 mg/dL

Molecule: Gold Chloride
- reducing sulfhydryl interference [2]: work well
- Salicylate Prediction of Fluid Fluid B [2]: 40 mg/dL
- Salicylate Prediction of Fluid Fluid C [2]: 40 mg/dL
- Salicylate Prediction of Fluid Fluid A [2]: 40 mg/dL

Molecule: Silver Nitrate
- reducing sulfhydryl interference [2]: work well
- Salicylate Prediction of Fluid Fluid B [2]: 40 mg/dL
- Salicylate Prediction of Fluid Fluid C [2]: 40 mg/dL
- Salicylate Prediction of Fluid Fluid A [2]: 40 mg/dL
- bias, Std w/ AgNO3 ([1]; Salicylate at 15 mg/dL, 1 hour contact w/ rubber stoppers containing 2-benzothiazolethiol, 0.4 g/m² silver nitrate): 0.3 mg/dL bias
- bias, Std w/ AgNO3 ([1]; Salicylate at 15 mg/dL, n-acetylcysteine at 102 mg/dL, 0.4 g/m² silver nitrate in spreading layer): -0.01 mg/dL bias
- bias, Std w/ AgNO3 ([1]; Salicylate at 40 mg/dl, 1 hour contact w/ rubber stoppers containing 2-benzothiazolethiol, 0.4 g/m² silver nitrate): 0.3 mg/dL bias
- bias, Std w/ AgNO3 ([1]; Salicylate at 40 mg/dl, n-acetylcysteine at 102 mg/dL, 0.4 g/m² silver nitrate): -1.2 mg/dL bias

Source: patent EP0579202A1, “Sulfhydryl-complexing agents in clinical test elements” (Johnson & Johnson Clinical Diagnostics, Inc., priority 1992, dated 1994)
